For the assay, the system named is persistent retinal vascular leakage. Briefly: DL-AAA model of persistent retinal vascular leakage, fluorescein angiography. Format: in vivo, DB rabbits. The settings on record: 2-mg injection.

With “Eylea® (aflibercept): commercial aflibercept product, macromolecular ligand for VEGF, used to validate the model”, the “duration of effect on leakage” value is listed as “approximately two”.

The record behind these values is patent US11883525B2, “Bioerodible polyester polymer axitinib ocular implants and related methods of use” (Dose Medical Corporation, priority 2019, dated 2024).
